The target in experiment [1] is T1, MKK6 (Homo sapiens, UniProt P52564).
T1 construct: purchased Millipore KinaseProfiler (kinases); Cerep (receptors and ion channels)
Kind of experiment: Millipore kinase panel. As to conditions: read-out: % Control. In kind it is biochemical.

Experiment [2] deals with CYP450 2C19 (Homo sapiens, UniProt P33261). Kind of experiment: CYP450 inhibition. The format is in vitro ADME.
Experiment [3] deals with CYP450 2C9 (Homo sapiens, UniProt P11712). Description: CYP450 inhibition. The format is in vitro ADME.
For experiment [4], the target named is T2, CDK1/CYCLINB (Homo sapiens, UniProt P06493).
T2 construct: purchased Millipore KinaseProfiler (kinases); Cerep (receptors and ion channels)
Description: Millipore kinase panel. The format is biochemical. The conditions noted are these: read-out: % Control.

In experiment [5] the target is T3, EPHA4 (Homo sapiens, UniProt P54764).
T3 construct: purchased Millipore KinaseProfiler (kinases); Cerep (receptors and ion channels)
Kind of experiment: Millipore kinase panel. The conditions noted are these: read-out: % Control. In kind it is biochemical.

The target of experiment [6] is T4, PI3K BETA (Homo sapiens, UniProt P42338).
T4 construct: purchased Millipore KinaseProfiler (kinases); Cerep (receptors and ion channels)
T4 sequence (P42338 whole entry): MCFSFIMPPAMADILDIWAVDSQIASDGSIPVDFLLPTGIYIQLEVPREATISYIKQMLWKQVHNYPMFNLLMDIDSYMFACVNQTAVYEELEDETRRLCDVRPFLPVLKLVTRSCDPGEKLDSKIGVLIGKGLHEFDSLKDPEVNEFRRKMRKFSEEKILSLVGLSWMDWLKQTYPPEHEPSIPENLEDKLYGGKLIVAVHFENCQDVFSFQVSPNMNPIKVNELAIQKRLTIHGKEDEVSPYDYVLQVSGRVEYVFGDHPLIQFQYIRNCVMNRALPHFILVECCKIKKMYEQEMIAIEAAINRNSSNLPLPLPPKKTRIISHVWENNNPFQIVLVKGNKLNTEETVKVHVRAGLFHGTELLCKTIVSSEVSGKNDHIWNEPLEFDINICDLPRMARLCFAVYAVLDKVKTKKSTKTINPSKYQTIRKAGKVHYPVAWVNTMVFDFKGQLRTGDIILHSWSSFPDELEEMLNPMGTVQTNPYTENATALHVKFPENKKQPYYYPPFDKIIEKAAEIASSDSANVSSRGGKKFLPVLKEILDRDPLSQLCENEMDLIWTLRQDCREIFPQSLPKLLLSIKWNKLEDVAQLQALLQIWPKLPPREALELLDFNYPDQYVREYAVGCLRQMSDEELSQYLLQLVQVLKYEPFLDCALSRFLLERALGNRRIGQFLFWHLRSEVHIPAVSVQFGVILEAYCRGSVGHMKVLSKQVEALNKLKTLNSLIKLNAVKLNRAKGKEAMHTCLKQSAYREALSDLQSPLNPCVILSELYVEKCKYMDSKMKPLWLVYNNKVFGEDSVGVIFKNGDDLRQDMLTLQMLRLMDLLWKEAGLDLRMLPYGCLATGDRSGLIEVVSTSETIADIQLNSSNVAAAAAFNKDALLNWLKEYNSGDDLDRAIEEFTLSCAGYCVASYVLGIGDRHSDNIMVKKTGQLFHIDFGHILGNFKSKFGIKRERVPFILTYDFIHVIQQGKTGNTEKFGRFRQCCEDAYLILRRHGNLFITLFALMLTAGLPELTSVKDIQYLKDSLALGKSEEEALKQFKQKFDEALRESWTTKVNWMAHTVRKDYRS
T4 sequence (P27986 whole entry partner): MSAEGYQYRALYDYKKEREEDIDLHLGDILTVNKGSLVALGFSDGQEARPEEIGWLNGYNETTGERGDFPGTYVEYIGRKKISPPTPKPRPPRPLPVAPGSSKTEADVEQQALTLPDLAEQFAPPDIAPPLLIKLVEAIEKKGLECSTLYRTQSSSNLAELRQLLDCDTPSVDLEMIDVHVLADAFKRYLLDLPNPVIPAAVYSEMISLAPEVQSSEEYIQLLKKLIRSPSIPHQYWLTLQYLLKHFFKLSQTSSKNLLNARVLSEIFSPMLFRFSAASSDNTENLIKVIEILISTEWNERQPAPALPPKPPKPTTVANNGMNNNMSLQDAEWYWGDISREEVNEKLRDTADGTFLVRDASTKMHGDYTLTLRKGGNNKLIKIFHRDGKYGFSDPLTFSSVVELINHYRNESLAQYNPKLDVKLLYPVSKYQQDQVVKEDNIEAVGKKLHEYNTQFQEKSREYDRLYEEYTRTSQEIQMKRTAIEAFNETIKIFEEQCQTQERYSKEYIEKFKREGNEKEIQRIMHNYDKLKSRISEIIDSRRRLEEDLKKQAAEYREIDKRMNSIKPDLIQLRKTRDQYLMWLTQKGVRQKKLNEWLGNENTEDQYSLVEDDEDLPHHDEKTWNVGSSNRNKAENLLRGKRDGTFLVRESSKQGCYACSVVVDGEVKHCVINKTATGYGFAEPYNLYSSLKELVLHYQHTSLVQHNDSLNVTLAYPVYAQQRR
Description: Millipore kinase panel. In kind it is biochemical. The conditions noted are these: read-out: % Control.

Experiment [7] concerns the target T5, PKBALPHA (Homo sapiens, UniProt P31749).
T5 construct: purchased Millipore KinaseProfiler (kinases); Cerep (receptors and ion channels)
Kind of experiment: Millipore kinase panel. In kind it is biochemical. As to conditions: read-out: % Control.

Experiment [8] concerns the target T6, PKBGAMMA (Homo sapiens, UniProt Q9Y243).
T6 construct: purchased Millipore KinaseProfiler (kinases); Cerep (receptors and ion channels)
Kind of experiment: Millipore kinase panel. In kind it is biochemical. As to conditions: read-out: % Control.

Experiment [9] addresses T7, PKCGAMMA (Homo sapiens, UniProt P05129).
T7 construct: purchased Millipore KinaseProfiler (kinases); Cerep (receptors and ion channels)
Kind of experiment: Millipore kinase panel. In kind it is biochemical. The conditions noted are these: read-out: % Control.

Experiment [10] has as its target T8, SAPK2A(T106M) (Homo sapiens, UniProt Q16539, T106M).
T8 construct: purchased Millipore KinaseProfiler (kinases); Cerep (receptors and ion channels)
Kind of experiment: Millipore kinase panel. The format is biochemical. The conditions noted are these: read-out: % Control.

Experiment [11] has as its target T9, TSSK2 (Homo sapiens, UniProt Q96PF2).
T9 construct: purchased Millipore KinaseProfiler (kinases); Cerep (receptors and ion channels)
Kind of experiment: Millipore kinase panel. The conditions noted are these: read-out: % Control. In kind it is biochemical.

For experiment [12], the target named is T10, PDGFRALPHA(V561D) (Homo sapiens, UniProt P16234, V561D).
T10 construct: purchased Millipore KinaseProfiler (kinases); Cerep (receptors and ion channels)
Kind of experiment: Millipore kinase panel. The format is biochemical. The conditions noted are these: read-out: % Control.

Experiment [13] addresses T11, CHK2(I157T) (Homo sapiens, UniProt O96017, I157T).
T11 construct: purchased Millipore KinaseProfiler (kinases); Cerep (receptors and ion channels)
Description: Millipore kinase panel. As to conditions: read-out: % Control. The format is biochemical.

For experiment [14], the target named is T12, FGFR2(N549H) (Homo sapiens, UniProt P21802, N549H).
T12 construct: purchased Millipore KinaseProfiler (kinases); Cerep (receptors and ion channels)
T12 sequence (P21802 22-821 N549H): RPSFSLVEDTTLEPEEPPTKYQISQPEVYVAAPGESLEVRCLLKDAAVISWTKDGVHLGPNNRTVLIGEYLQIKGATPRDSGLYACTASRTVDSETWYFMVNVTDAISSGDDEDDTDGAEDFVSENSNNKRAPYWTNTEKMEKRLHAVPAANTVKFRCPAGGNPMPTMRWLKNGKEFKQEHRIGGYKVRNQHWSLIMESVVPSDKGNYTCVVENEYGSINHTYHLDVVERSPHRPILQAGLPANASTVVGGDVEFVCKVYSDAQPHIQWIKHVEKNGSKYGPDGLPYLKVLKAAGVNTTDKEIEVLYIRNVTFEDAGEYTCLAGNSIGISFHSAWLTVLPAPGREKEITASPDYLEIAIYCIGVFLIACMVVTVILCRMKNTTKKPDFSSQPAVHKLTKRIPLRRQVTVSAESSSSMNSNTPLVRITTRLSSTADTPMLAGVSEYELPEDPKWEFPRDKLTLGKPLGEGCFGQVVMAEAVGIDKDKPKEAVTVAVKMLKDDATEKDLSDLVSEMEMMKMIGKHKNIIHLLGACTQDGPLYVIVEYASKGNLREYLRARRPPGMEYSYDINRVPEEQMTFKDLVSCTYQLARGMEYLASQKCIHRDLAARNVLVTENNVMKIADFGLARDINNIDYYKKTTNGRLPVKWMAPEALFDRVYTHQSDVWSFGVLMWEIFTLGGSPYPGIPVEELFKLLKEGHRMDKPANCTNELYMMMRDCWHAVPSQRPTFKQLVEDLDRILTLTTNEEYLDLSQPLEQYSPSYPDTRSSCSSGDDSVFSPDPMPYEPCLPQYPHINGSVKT
Description: Millipore kinase panel. The format is biochemical. As to conditions: read-out: % Control.

Experiment [15] concerns the target T13, SRC(T341M) (Homo sapiens, UniProt P12931, T341M).
T13 construct: purchased Millipore KinaseProfiler (kinases); Cerep (receptors and ion channels)
Kind of experiment: Millipore kinase panel. As to conditions: read-out: % Control. In kind it is biochemical.

Experiment [16] concerns CK1(Y). Description: Millipore kinase panel. The format is biochemical. The conditions noted are these: 1 μM, ATP at Km. The procedure:
(§1) Supplementary Table S3. Activity of compound 44 tested 1 μM across a panel of 209 non-mutated kinases (Millipore Panel: data expressed as percentage control response versus each kinase tested at its respective Km for ATP). No inhibition was considered sufficient to warrant follow-up with IC50 determination.
(§2) % Inhibition of % Inhibition of […]
(§3) α1 (non-selective) (antagonist radioligand) 8 NTS1 (NT1) (h) (agonist radioligand) -8 α2 (non-selective) (antagonist radioligand) 0 δ2 (DOP) (h) (agonist radioligand) 22 β1 (h) (agonist radioligand) 5 κ (KOP) (agonist radioligand) 72 […]
(§4) AT1 (h) (antagonist radioligand) 8 NOP (ORL1) (h) (agonist radioligand) 3 BZD (central) (agonist radioligand) 18 TP (h) (TXA2/PGH2) (antagonist radioligand) NT B2 (h) (agonist radioligand) 0 5-HT1A (h) (agonist radioligand) 19 […]
(§5) CCK1 (CCKA) (h) (agonist radioligand) 2 5-HT2A (h) (antagonist radioligand) 1 D1 (h) (antagonist radioligand) 7 5-HT2B (h) (agonist radioligand) 6
(§6) D2S (h) (antagonist radioligand) 5 5-HT3 (h) (antagonist radioligand) 9 ETA (h) (agonist radioligand) -9 5-HT5a (h) (agonist radioligand) 1
(§7) GABA (non-selective) (agonist radioligand) 5 5-HT6 (h) (agonist radioligand) 3 GAL2 (h) (agonist radioligand) 2 5-HT7 (h) (agonist radioligand) 1
(§8) CXCR2 (IL-8B) (h) (agonist radioligand) -6 sst (non-selective) (agonist radioligand) 4 CCR1 (h) (agonist radioligand) -4 VPAC1 (VIP1) (h) (agonist radioligand) 0 H1 (h) (antagonist radioligand) 16 V1a (h) (agonist radioligand) -7
(§9) H2 (h) (antagonist radioligand) -2 Ca2+ channel (L, verapamil site) (phenylalkylamine) (antagonist radioligand) 7 MC4 (h) (agonist radioligand) 4 KV channel (antagonist radioligand) -13 MT1 (ML1A) (h) (agonist radioligand) 34 SKCa channel (antagonist radioligand) 3 M1 (h) (antagonist radioligand) 21 Na+ channel (site 2) (antagonist radioligand) 29 M2 (h) (antagonist radioligand) 38 Cl- channel (GABA-gated) (antagonist radioligand) 31 M3 (h) (antagonist radioligand) 46 norepinephrine transporter (h) (antagonist radioligand) 14 NK2 (h) (agonist radioligand) -17 dopamine transporter (h) (antagonist radioligand) 40 5-HT transporter (h) (antagonist radioligand) 70 […]
(§10) receptors, ion channels and enzymes (CEREP). Results are expressed as percent inhibition of control specific binding. […]
(§11) kinases (Millipore Panel: data expressed as percentage control response versus each kinase tested […]
(§12) at its respective Km for ATP).
(§13) Supplementary Figure S1. Dose-dependent reduction of endogenous cMYC mRNA measured by RT-PCR (n = 8) after treatment of 7dF3 cells with 74 at the stated concentration for 2 h […]

The test system of experiment [17] is PI3 KINASE (P110A(E542K)/P85A). Description: Millipore kinase panel. The format is biochemical. The conditions noted are these: 1 μM, ATP at Km. As for the experimental part:
as §1, §2, §3, §4, §5, §6, §7, §8, §9, §10, §11, §12, §13

The subject of experiment [18] is PI3 KINASE (P110A(E545K)/P85A). Description: Millipore kinase panel. In kind it is biochemical. As to conditions: 1 μM, ATP at Km. As for the experimental part:
as §1, §2, §3, §4, §5, §6, §7, §8, §9, §10, §11, §12, §13

Experiment [19] relates to PI3 KINASE (P110A(H1047R)/P85A). Kind of experiment: Millipore kinase panel. In kind it is biochemical. The conditions noted are these: 1 μM, ATP at Km. As for the experimental part: as §1, §2, §3, §4, §5, §6, §7, §8, §9, §10, §11, §12, §13
Experiment [20] relates to PI3 KINASE (P110A/P65A). Kind of experiment: Millipore kinase panel. The format is biochemical. The conditions noted are these: 1 μM, ATP at Km. The procedure:
as §1, §2, §3, §4, §5, §6, §7, §8, §9, §10, §11, §12, §13

Experiment [21] deals with PI3 KINASE (P110B/P85A). Kind of experiment: Millipore kinase panel. In kind it is biochemical. As to conditions: 1 μM, ATP at Km. As for the experimental part:
as §1, §2, §3, §4, §5, §6, §7, §8, §9, §10, §11, §12, §13

In experiment [22] the test system is PI3 KINASE (P110D/P85A). Description: Millipore kinase panel. In kind it is biochemical. As to conditions: 1 μM, ATP at Km. The procedure: as §1, §2, §3, §4, §5, §6, §7, §8, §9, §10, §11, §12, §13
Experiment [23] deals with PI3 KINASE (P65A). Kind of experiment: Millipore kinase panel. The format is biochemical. The conditions noted are these: 1 μM, ATP at Km. As for the experimental part: as §1, §2, §3, §4, §5, §6, §7, §8, §9, §10, §11, §12, §13
Experiment [24] deals with PI3 KINASE (P85A). Kind of experiment: Millipore kinase panel. The format is biochemical. The conditions noted are these: 1 μM, ATP at Km. The procedure:
as §1, §2, §3, §4, §5, §6, §7, §8, §9, §10, §11, §12, §13

Experiment [25] has as its target T14, PI3 KINASE (P110B/P85B) (Mus musculus, UniProt Q8BTI9).
T14 construct: purchased Millipore KinaseProfiler (kinases); Cerep (receptors and ion channels)
Description: Millipore kinase panel. In kind it is biochemical. The conditions noted are these: read-out: % Control.

The target of experiment [26] is CYP450 1A2 (Homo sapiens, UniProt P05177). Description: CYP450 inhibition.

A value given as a limit tells only on which side of the number the result lay.

T6 sequence (Q9Y243 whole entry): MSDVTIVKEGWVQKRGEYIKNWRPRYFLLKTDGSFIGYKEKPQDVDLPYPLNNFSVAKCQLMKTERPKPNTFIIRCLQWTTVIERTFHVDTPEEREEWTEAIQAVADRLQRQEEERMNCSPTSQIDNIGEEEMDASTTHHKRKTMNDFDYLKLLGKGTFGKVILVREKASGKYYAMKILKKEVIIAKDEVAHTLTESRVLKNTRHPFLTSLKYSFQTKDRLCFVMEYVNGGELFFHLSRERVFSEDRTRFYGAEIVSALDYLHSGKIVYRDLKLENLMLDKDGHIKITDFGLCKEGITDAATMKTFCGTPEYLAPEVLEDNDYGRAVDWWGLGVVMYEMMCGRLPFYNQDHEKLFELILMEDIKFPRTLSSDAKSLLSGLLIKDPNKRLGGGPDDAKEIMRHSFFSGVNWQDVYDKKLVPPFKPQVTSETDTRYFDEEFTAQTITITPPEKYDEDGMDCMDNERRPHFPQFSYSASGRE
T5 sequence (P31749 whole entry): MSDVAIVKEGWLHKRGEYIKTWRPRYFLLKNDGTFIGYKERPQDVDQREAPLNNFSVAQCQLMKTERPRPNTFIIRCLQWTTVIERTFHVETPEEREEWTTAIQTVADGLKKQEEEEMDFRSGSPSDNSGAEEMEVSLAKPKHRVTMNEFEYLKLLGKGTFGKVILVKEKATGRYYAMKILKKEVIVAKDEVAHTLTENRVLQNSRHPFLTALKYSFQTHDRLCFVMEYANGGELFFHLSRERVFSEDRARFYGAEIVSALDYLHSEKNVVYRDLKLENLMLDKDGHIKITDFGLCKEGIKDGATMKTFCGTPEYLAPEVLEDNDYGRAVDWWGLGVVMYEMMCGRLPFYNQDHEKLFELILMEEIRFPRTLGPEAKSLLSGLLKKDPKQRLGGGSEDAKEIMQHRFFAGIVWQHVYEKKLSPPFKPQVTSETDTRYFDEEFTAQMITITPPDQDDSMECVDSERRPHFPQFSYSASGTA
T1 sequence (P52564 whole entry): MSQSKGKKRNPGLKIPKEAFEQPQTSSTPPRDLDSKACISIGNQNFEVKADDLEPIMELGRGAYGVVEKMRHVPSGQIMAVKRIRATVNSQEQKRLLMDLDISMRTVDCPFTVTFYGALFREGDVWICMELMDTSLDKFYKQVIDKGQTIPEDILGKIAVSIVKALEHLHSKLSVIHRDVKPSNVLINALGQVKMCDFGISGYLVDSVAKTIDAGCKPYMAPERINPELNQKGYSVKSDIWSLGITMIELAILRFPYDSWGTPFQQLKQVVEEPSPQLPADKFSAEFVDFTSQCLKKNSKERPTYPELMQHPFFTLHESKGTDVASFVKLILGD
T9 sequence (Q96PF2 whole entry): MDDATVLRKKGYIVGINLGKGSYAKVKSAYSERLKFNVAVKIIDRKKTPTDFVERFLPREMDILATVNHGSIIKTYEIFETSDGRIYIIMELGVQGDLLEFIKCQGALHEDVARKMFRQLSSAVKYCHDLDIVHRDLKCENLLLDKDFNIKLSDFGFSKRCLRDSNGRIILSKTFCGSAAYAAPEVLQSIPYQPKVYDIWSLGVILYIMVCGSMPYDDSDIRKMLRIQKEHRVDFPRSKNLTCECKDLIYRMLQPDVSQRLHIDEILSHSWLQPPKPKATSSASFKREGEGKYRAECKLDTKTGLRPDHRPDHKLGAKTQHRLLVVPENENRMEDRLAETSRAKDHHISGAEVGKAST

In the case of `O=C1NCCC12CCN(c1c(Cl)cncc1-c1ccc(N3CCOCC3)cc1)CC2` [Compound 44, 8-(3-Chloro-5-(4-morpholin-4-ylphenyl)pyridin-4-yl)-2,8-diazaspiro[4.5]decan-1-one], the remaining activity at 1 µM in [1] was determined as 48%.

Turning to `Cn1cc(-c2ccc(-c3cncc(Cl)c3N3CCC4(CCNC4=O)CC3)cc2)cn1` [Compound 74, 8-(3-Chloro-5-(4-(1-methyl-1H-pyrazol-4-yl)phenyl)pyridin-4-yl)-2,8-diazaspiro[4.5]decan-1-one], the IC50 in experiment [2] was 8 µM; in experiment [3] it was 4.2 µM; in experiment [26], > 20 µM. Besides, the remaining activity at 1 µM in experiment [4] was -9%; in experiment [5], -26%; in experiment [6], 0%; in experiment [7] it was 2%; in [8], -5%; in experiment [9], 2%. Moreover, the remaining activity at 1 µM in experiment [10] is -8%; in experiment [11], -1%; in experiment [12], 6%; in [13] it was 2%; in experiment [14], 1%; in [15], -6%. For the same molecule, in experiment [25], the remaining activity at 1 µM is -1%. The “% Control” value in experiment [16] is -4%; in experiment [17], 0%; in experiment [18], -1%; in [19], 2%; in experiment [20], 0%; in experiment [21], -1%. The “% Control” value in experiment [22] was 0%; in experiment [23], 0%; in experiment [24], -1%.

Values taken from publication PMC4767141, “Discovery of Potent, Orally Bioavailable, Small-Molecule Inhibitors of WNT Signaling from a Cell-Based Pathway Screen” (Journal of Medicinal Chemistry, 2015).
